Common to all, as to type: functional
Test [1] concerns Enterococcus faecium. In words: Antibacterial activity against Enterococcus faecium 45/146.
The subject of test [2] is Enterococcus faecium. In words: Antibacterial activity against Enterococcus faecium ATCC 19434.
In test [3] the test system is Staphylococcus aureus. Nature of the test: Antibacterial activity against methicillin-resistant Staphylococcus aureus 562.
In test [4] the test system is Enterococcus faecium. Nature of the test: Antibacterial activity against Enterococcus faecium ATCC 35667.
Test [5] has as its system Staphylococcus epidermidis. Nature of the test: Antibacterial activity against methicillin-resistant Staphylococcus epidermidis ATCC 35984.
Test [6] relates to Enterococcus faecium. In words: Antibacterial activity against vancomycin-resistant Enterococcus faecium R1.
In test [7] the test system is Enterococcus faecium. Nature of the test: Antibacterial activity against vancomycin-resistant Enterococcus faecium 6A.
The subject of test [8] is Staphylococcus aureus. Nature of the test: Antibacterial activity against linezolid-resistant Staphylococcus aureus O-128.
The test system of test [9] is Enterococcus faecium. Nature of the test: Antibacterial activity against Enterococcus faecium 575.
Test [10] has as its system Enterococcus faecium. In words: Antibacterial activity against vancomycin-resistant Enterococcus faecium 134.
Test [11] deals with Escherichia coli. Nature of the test: Antibacterial activity against Escherichia coli MG1655. The note with it: K-12 substr. MG1655.
Test [12] concerns Staphylococcus aureus. In words: Antibacterial activity against methicillin-resistant Staphylococcus aureus 1201984.
The subject of test [13] is Staphylococcus aureus. In words: Antibacterial activity against Staphylococcus aureus Mu50 ATCC 700699.
For test [14], the system named is Staphylococcus epidermidis. Nature of the test: Antibacterial activity against Staphylococcus epidermidis ATCC 12228.
Test [15] concerns Staphylococcus aureus. Nature of the test: Antibacterial activity against Staphylococcus aureus ATCC 29213.
For test [16], the system named is Staphylococcus epidermidis. Nature of the test: Antibacterial activity against linezolid-resistant Staphylococcus epidermidis 1089191.
Test [17] concerns Staphylococcus aureus. Nature of the test: Antibacterial activity against methicillin-resistant Staphylococcus aureus DB-00026.
The subject of test [18] is Enterococcus faecalis. Nature of the test: Antibacterial activity against linezolid-resistant Enterococcus faecalis ATCC 29212.
The test system of test [19] is Escherichia coli. Nature of the test: Antibacterial activity against TolC-deficient Escherichia coli.
Test [20] has as its system Enterococcus faecium. Nature of the test: Antibacterial activity against Enterococcus faecium NLNZ 572.
The subject of test [21] is Enterococcus faecium. In words: Antibacterial activity against linezolid-resistant Enterococcus faecium 303.
Test [22] relates to Enterococcus faecalis. In words: Antibacterial activity against Enterococcus faecalis ATCC 51299.
The subject of test [23] is Enterococcus faecium. In words: Antibacterial activity against vancomycin-resistant Enterococcus faecium 03080 DS.
The subject of test [24] is Staphylococcus aureus. Nature of the test: Antibacterial activity against […] Staphylococcus aureus ATCC 13709 SMITH.
The subject of test [25] is Enterococcus faecium. Nature of the test: Antibacterial activity against vancomycin-resistant Enterococcus faecium 32/133.
Test [26] deals with Staphylococcus aureus. Nature of the test: Antibacterial activity against methicillin-resistant Staphylococcus aureus USA300 BAA-1556.
Test [27] has as its system Staphylococcus aureus. In words: Antibacterial activity against PVL positive Staphylococcus aureus.
For test [28], the system named is Staphylococcus epidermidis. Nature of the test: Antibacterial activity against linezolid-resistant Staphylococcus epidermidis 1117174.
The subject of test [29] is Enterococcus faecalis. In words: Antibacterial activity against Enterococcus faecalis ATCC 29212.
The subject of test [30] is Enterococcus faecium. In words: Antibacterial activity against vancomycin-resistant Enterococcus faecium 31/132.
The subject of test [31] is Enterococcus faecalis. Nature of the test: Antibacterial activity against Enterococcus faecalis ATCC 19434.
Test [32] relates to Staphylococcus aureus. Nature of the test: Antibacterial activity against Staphylococcus aureus FDA 209P.

Data on 5 molecules can be found in ChEMBL document CHEMBL4219129, “Design, synthesis and biological evaluation of spiropyrimidinetriones oxazolidinone derivatives as antibacterial agents” (2018).

In brackets after ≈: the same amount, converted by molar mass.

As a reminder, the MIC is the smallest concentration in the dilution series that meets the test's criterion for growth inhibition.

Regarding `CC(=O)NC[C@H]1CN(c2ccc(-c3ccc4c(c3)CC3(C(=O)NC(=O)NC3=O)C3CCCCN43)c(F)c2)C(=O)O1` (stereo not given in full), the minimal inhibitory concentration (MIC) in test [1] was 2 µg/mL (≈ 3.64 µM); in [2] it was 2 µg/mL (≈ 3.64 µM); in test [3], at most 1 µg/mL; in test [4] it was 1 µg/mL (≈ 1.82 µM); in [5], at most 1 µg/mL; in test [6], 1 µg/mL (≈ 1.82 µM). For the same molecule, the MIC in [7] is 1 µg/mL (≈ 1.82 µM); in [8], 8 µg/mL (≈ 14.6 µM); in test [9], 2 µg/mL (≈ 3.64 µM); in test [10], 4 µg/mL (≈ 7.28 µM); in test [11], above 32 µg/mL; in test [12], 2 µg/mL (≈ 3.64 µM). The MIC is at most 1 µg/mL in test [13]; 2 µg/mL (≈ 3.64 µM) in [14]; 2 µg/mL (≈ 3.64 µM) in test [15]; above 32 µg/mL in test [16]; 2 µg/mL (≈ 3.64 µM) in test [17]; 4 µg/mL (≈ 7.28 µM) in test [18]. Also, the MIC in test [19] turned out to be 4 µg/mL (≈ 7.28 µM); in test [20], 4 µg/mL (≈ 7.28 µM); in test [21], 16 µg/mL (≈ 29.1 µM); in [22], 1 µg/mL (≈ 1.82 µM); in [23] it was 1 µg/mL (≈ 1.82 µM); in test [24], 16 µg/mL (≈ 29.1 µM). The MIC was 4 µg/mL (≈ 7.28 µM) in test [25]; 2 µg/mL (≈ 3.64 µM) in [26]; 4 µg/mL (≈ 7.28 µM) in [27]; above 32 µg/mL in test [28]; 2 µg/mL (≈ 3.64 µM) in [29]; 2 µg/mL (≈ 3.64 µM) in test [30]. For the same molecule, the MIC in test [31] and in [32] was 2 µg/mL (≈ 3.64 µM) in each case.

Regarding `CC(=O)NC[C@H]1CN(c2ccc(-c3ccc4c(c3)CC3(C(=O)NC(=O)NC3=O)C3CCCN43)c(F)c2)C(=O)O1` (stereo not given in full), the MIC was 2 µg/mL (≈ 3.73 µM) in test [1]; 2 µg/mL (≈ 3.73 µM) in test [2]; 2 µg/mL (≈ 3.73 µM) in test [3]; 1 µg/mL (≈ 1.87 µM) in test [4]; at most 1 µg/mL in test [5]; 2 µg/mL (≈ 3.73 µM) in [6]. Further, the MIC was 1 µg/mL (≈ 1.87 µM) in test [7]; 16 µg/mL (≈ 29.9 µM) in test [8]; 2 µg/mL (≈ 3.73 µM) in [9]; 4 µg/mL (≈ 7.47 µM) in test [10]; above 32 µg/mL in test [11]; 4 µg/mL (≈ 7.47 µM) in test [12]. Further, the MIC in test [13] is at most 1 µg/mL; in test [14], 2 µg/mL (≈ 3.73 µM); in test [15] it was 2 µg/mL (≈ 3.73 µM); in [16], above 32 µg/mL; in test [17] it was 2 µg/mL (≈ 3.73 µM); in [18], 4 µg/mL (≈ 7.47 µM). For the same molecule, the MIC in [19] amounted to 2 µg/mL (≈ 3.73 µM); in test [20], 4 µg/mL (≈ 7.47 µM); in test [21], 16 µg/mL (≈ 29.9 µM); in test [22], 2 µg/mL (≈ 3.73 µM); in test [23] it was 2 µg/mL (≈ 3.73 µM); in [24], 16 µg/mL (≈ 29.9 µM). In addition, the MIC is 4 µg/mL (≈ 7.47 µM) in [25]; 4 µg/mL (≈ 7.47 µM) in test [26]; 2 µg/mL (≈ 3.73 µM) in test [27]; 32 µg/mL (≈ 59.8 µM) in [28]; 2 µg/mL (≈ 3.73 µM) in test [29]; 2 to 4 µg/mL (≈ 3.73 to 7.47 µM) in test [30]. Further, the MIC worked out at 2 µg/mL (≈ 3.73 µM) in test [31] and 4 µg/mL (≈ 7.47 µM) in test [32].

Consider `O=C1NC(=O)C2(Cc3cc(-c4ccc(N5C[C@H](CO)OC5=O)cc4F)ccc3N3CCOCC32)C(=O)N1` (stereo not given in full), for which the MIC in [3] is 4 µg/mL (≈ 7.84 µM); in test [5] it was 2 µg/mL (≈ 3.92 µM); in [8] it was 32 µg/mL (≈ 62.7 µM); in [11], above 32 µg/mL; in test [12], 16 µg/mL (≈ 31.3 µM); in test [13], 4 µg/mL (≈ 7.84 µM). Besides, the MIC in [14] was 4 µg/mL (≈ 7.84 µM); in test [15] it was 8 µg/mL (≈ 15.7 µM); in test [16], above 32 µg/mL; in test [17], 8 µg/mL (≈ 15.7 µM); in test [19], 4 µg/mL (≈ 7.84 µM); in test [24], 32 µg/mL (≈ 62.7 µM). For the same molecule, the MIC in test [26] worked out at 8 µg/mL (≈ 15.7 µM); in test [27], 8 µg/mL (≈ 15.7 µM); in test [28] it was 32 µg/mL (≈ 62.7 µM); in test [32], 8 µg/mL (≈ 15.7 µM).

As for `CCC(=O)NC[C@H]1CN(c2ccc(-c3ccc4c(c3)CC3(C(=O)NC(=O)NC3=O)C3CCCN43)c(F)c2)C(=O)O1` (stereo not given in full), the MIC in test [3] is 4 µg/mL (≈ 7.28 µM); in [5] it was 4 µg/mL (≈ 7.28 µM); in test [8], 32 µg/mL (≈ 58.2 µM); in test [11] it was above 32 µg/mL; in test [12], 8 µg/mL (≈ 14.6 µM); in test [13], 8 µg/mL (≈ 14.6 µM). For the same molecule, the MIC in [14] is 8 µg/mL (≈ 14.6 µM); in test [15], 16 µg/mL (≈ 29.1 µM); in test [16], above 32 µg/mL; in test [17], 8 µg/mL (≈ 14.6 µM); in test [19], 8 µg/mL (≈ 14.6 µM); in [24], 32 µg/mL (≈ 58.2 µM). For the same molecule, the MIC came out at 16 µg/mL (≈ 29.1 µM) in test [26], 8 µg/mL (≈ 14.6 µM) in [27], 32 µg/mL (≈ 58.2 µM) in [28] and 8 µg/mL (≈ 14.6 µM) in test [32].

As to `CN[C@H](CC(C)C)C(=O)N[C@H]1C(=O)N[C@@H](CC(N)=O)C(=O)N[C@H]2C(=O)N[C@H]3C(=O)N[C@H](C(=O)N[C@H](C(=O)O)c4cc(O)cc(O)c4-c4cc3ccc4O)[C@H](O)c3ccc(c(Cl)c3)Oc3cc2cc(c3O[C@@H]2O[C@H](CO)[C@@H](O)[C@H](O)[C@H]2O[C@H]2C[C@](C)(N)[C@H](O)[C@H](C)O2)Oc2ccc(cc2Cl)[C@H]1O` [VANCOMYCIN], the MIC in [18] is 2 µg/mL (≈ 1.38 µM); in test [22], above 32 µg/mL; in [29], 2 µg/mL (≈ 1.38 µM); in test [30], above 32 µg/mL.
